Assay results published in patent US8436178B2, “Imidazoquinolines with immuno-modulating properties” (AstraZeneca AB, priority 2007, dated 2013).
pEC50: −log10 of the molar value.

Molecular target: T1, human TLR7 (Homo sapiens, UniProt Q9NYK1)
T1 construct: expressed in transfected cells; host or cells: HEK293 cell line stably expressing the pNiFty2-SEAP reporter plasmid; TLR7 in pUNO vector, blasticidin selection
T1 sequence (Q9NYK1 27-1049): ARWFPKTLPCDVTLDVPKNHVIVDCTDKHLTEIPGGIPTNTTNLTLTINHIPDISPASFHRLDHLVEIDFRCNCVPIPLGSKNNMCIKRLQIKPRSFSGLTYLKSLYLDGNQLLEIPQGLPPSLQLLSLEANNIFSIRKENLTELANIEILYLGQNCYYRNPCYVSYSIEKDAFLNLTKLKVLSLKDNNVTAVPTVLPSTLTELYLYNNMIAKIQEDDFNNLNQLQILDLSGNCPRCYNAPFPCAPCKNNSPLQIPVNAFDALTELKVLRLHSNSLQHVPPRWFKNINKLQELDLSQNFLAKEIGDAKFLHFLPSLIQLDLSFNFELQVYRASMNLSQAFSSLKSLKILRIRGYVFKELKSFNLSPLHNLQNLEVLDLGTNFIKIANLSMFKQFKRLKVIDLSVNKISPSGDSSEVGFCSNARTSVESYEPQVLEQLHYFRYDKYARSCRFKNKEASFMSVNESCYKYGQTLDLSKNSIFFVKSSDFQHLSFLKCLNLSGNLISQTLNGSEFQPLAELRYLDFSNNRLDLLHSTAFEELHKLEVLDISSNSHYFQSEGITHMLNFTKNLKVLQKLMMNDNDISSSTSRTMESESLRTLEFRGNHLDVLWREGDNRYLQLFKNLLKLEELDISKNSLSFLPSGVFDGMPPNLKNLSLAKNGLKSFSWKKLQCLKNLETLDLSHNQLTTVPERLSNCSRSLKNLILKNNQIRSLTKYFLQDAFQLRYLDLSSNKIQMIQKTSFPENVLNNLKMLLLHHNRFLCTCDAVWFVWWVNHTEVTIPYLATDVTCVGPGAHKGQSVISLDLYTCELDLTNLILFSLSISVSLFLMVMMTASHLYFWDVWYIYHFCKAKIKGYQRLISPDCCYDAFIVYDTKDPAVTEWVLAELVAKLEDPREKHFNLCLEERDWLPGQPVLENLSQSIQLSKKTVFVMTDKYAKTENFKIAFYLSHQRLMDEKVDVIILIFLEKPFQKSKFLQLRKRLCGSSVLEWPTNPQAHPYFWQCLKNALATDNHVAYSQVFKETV
Experiment: Human TLR7 assay (SEAP reporter in HEK293 cells)
Type: cell-based
Details: SEAP induction in HEK293 cells expressing human TLR7, overnight incubation at 37° C., 0.1% DMSO
Text: The most common variant sequence of human TLR7 (represented by the EMBL sequence AF240467) was cloned into the mammalian cell expression vector pUNO and transfected into a HEK293 cell line already stably expressing the pNiFty2-SEAP reporter plasmid; integration of the reporter gene was maintained by selection with the antibiotic zeocin. Transfectants with stable TLR7 expression were selected using the antibiotic blasticidin. In this reporter cell-line, expression of secreted alkaline phosphatase (SEAP) is controlled by an NFkB/ELAM-1 composite promoter comprising five NFkB sites combined with the proximal ELAM-1 promoter. TLR signaling leads to the translocation of NFkB and activation of the promoter results in expression of the SEAP gene. TLR7-specific activation was assessed by determining the level of SEAP produced following overnight incubation of the cells at 37° C. with the standard compound in the presence of 0.1% (v/v) dimethylsulfoxide (DMSO). Concentration dependent induction of SEAP production by compounds was expressed as the concentration of compound which produced half of the maximal level of SEAP induction for that compound (pEC50).

In the case of CCCCc1nc2c(N)nc3ccccc3c2n1CCCN(Cc1cccc(CC(=O)OC)c1)C(=O)CN1CCN(S(C)(=O)=O)CC1 [Example 59, Methyl 2-(3-((N-(3-(4-amino-2-butyl-1H-imidazo[4,5-c]quinolin-1-yl)propyl)-2-(4-(methylsulfonyl)piperazin-1-yl)acetamido)methyl)phenyl)acetate], the pEC50 was 6.10.

Work on CCCCc1nc2c(N)nc3ccccc3c2n1CCCN(Cc1cccc(CC(=O)OC)c1)C(=O)CN1CCCCCC1 [Example 60, Methyl 2-(3-((N-(3-(4-amino-2-butyl-1H-imidazo[4,5-c]quinolin-1-yl)propyl)-2-(azepan-1-yl)acetamido)methyl)phenyl)acetate] yielded a pEC50 of 7.10.

CCCCc1nc2c(N)nc3ccccc3c2n1CCCN(Cc1cccc(CC(=O)OC)c1)C(=O)CN1CCCOCC1 [Example 61, Methyl 2-(3-((N-(3-(4-amino-2-butyl-1H-imidazo[4,5-c]quinolin-1-yl)propyl)-2-(1,4-oxazepan-4-yl)acetamido)methyl)phenyl)acetate] showed a pEC50 of 6.40.

In the case of CCCCc1nc2c(N)nc3ccccc3c2n1CCCN(Cc1cccc(CC(=O)OC)c1)C(=O)CN1CCCN(C)CC1 [Example 62, Methyl 2-(3-((N-(3-(4-amino-2-butyl-1H-imidazo[4,5-c]quinolin-1-yl)propyl)-2-(4-methyl-1,4-diazepan-1-yl)acetamido)methyl)phenyl)acetate], the pEC50 was 6.60.

With CCCCc1nc2c(N)nc3ccccc3c2n1CCCN(Cc1cccc(CC(=O)OC)c1)C(=O)CN1CCCN(C(C)=O)CC1 [Example 63, Methyl 2-(3-((2-(4-acetyl-1,4-diazepan-1-yl)-N-(3-(4-amino-2-butyl-1H-imidazo[4,5-c]quinolin-1-yl)propyl)acetamido)methyl)phenyl)acetate] the pEC50 was 6.30.

Molecule CCCCc1nc2c(N)nc3ccccc3c2n1CCCN(Cc1cccc(CC(=O)OC)c1)C(=O)CN1CCCN(C(=O)NCC)CC1 [Example 64, Methyl 2-(3-((N-(3-(4-amino-2-butyl-1H-imidazo[4,5-c]quinolin-1-yl)propyl)-2-(4-(ethylcarbamoyl)-1,4-diazepan-1-yl)acetamido)methyl)phenyl)acetate] has a pEC50 of 5.90.

CCCCc1nc2c(N)nc3ccccc3c2n1CCCN(Cc1cccc(CC(=O)OC)c1)C(=O)CN1CCCN(S(C)(=O)=O)CC1 [Example 65, Methyl 2-(3-((N-(3-(4-amino-2-butyl-1H-imidazo[4,5-c]quinolin-1-yl)propyl)-2-(4-(methylsulfonyl)-1,4-diazepan-1-yl)acetamido)methyl)phenyl)acetate] was tested, and the pEC50 was 6.20.

CCCCc1nc2c(N)nc3ccccc3c2n1CCCN(Cc1ccc(CC(=O)OC)cc1)C(=O)CN1CCN(CCOC)CC1 [Example 66, Methyl 2-(4-((N-(3-(4-amino-2-butyl-1H-imidazo[4,5-c]quinolin-1-yl)propyl)-2-(4-(2-methoxyethyl)piperazin-1-yl)acetamido)methyl)phenyl)acetate] showed a pEC50 of 6.80.

With CCCCc1nc2c(N)nc3ccccc3c2n1CCCN(Cc1ccc(CC(=O)OC)cc1)C(=O)CN1CCCN(C(C)=O)CC1 [Example 67, Methyl 2-(4-((2-(4-acetyl-1,4-diazepan-1-yl)-N-(3-(4-amino-2-butyl-1H-imidazo[4,5-c]quinolin-1-yl)propyl)acetamido)methyl)phenyl)acetate] the pEC50 was 6.30.

With CCCCc1nc2c(N)nc3ccccc3c2n1CCCN(Cc1ccc(CC(=O)OC)cc1)C(=O)CN1CCCN(S(C)(=O)=O)CC1 [Example 68, Methyl 2-(4-((N-(3-(4-amino-2-butyl-1H-imidazo[4,5-c]quinolin-1-yl)propyl)-2-(4-(methylsulfonyl)-1,4-diazepan-1-yl)acetamido)methyl)phenyl)acetate] the pEC50 was 6.30.

CCCCc1nc2c(N)nc3ccccc3c2n1CCCN(Cc1ccc(CC(=O)OC)cc1)C(=O)CN(C)C1CCN(C(C)=O)CC1 [Example 69, Methyl 2-(4-((2-((1-acetylpiperidin-4-yl)(methyl)amino)-N-(3-(4-amino-2-butyl-1H-imidazo[4,5-c]quinolin-1-yl)propyl)acetamido)methyl)phenyl)acetate] was tested, and the pEC50 was 6.40.
